The values that follow come from patent US8551984B2, “Aminopyrimidines as SYK inhibitors” (Merck Sharp & Dohme Corp., priority 2009, dated 2013).

Where two headings read alike, the source gives them in different places.

The assay concerns the target rhSYK (Homo sapiens, UniProt P43405).
Where [1] appears, read: read-out: rhSYK activity, class symbol given.
Where [2] appears, read: read-out: rhSYK Activity, class symbol, where two forms are listed, one symbol per form.

Consider `Cc1cc(Nc2nccc(C(F)(F)F)n2)cc(-c2cnc([C@]3(O)CC[C@@H](C(=O)O)CC3)s2)c1` [33(1)-K, Potassium cis-4-hydroxy-4-[5-(3-methyl-5-{[4-(trifluoromethyl)pyrimidin-2-yl]amino}phenyl)-1,3-thiazol-2-yl]cyclohexanecarboxylate], for which the IC50 under setting [1] is less than 100 nM.
With `Cc1cc(Nc2nccc(C(F)(F)F)n2)cc(-c2cnc(C3(O)CCC(C(=O)O)CC3)s2)c1` (stereo not drawn) [33(1)-NA, Sodium cis-4-hydroxy-4-[5-(3-methyl-5-{[4-(trifluoromethyl)pyrimidin-2-yl]amino}phenyl)-1,3-thiazol-2-yl]cyclohexanecarboxylate], the IC50 under setting [1] was less than 100 nM.
Still for that read-out and setting: the value for `Cc1cc(Nc2nccc(C(F)(F)F)n2)cc(-c2cnc([C@]3(O)CC[C@H](C(=O)O)CC3)s2)c1` [33(2)-K, Potassium trans-4-hydroxy-4-[5-(3-methyl-5-{[4-(trifluoromethyl)pyrimidin-2-yl]amino}phenyl)-1,3-thiazol-2-yl]cyclohexanecarboxylate] was less than 100 nM.
With `Cc1cc(Nc2nccc(C(F)(F)F)n2)cc(-c2cnc(C3(O)CCC(C#N)CC3)s2)c1` (stereo not drawn) [37(1), cis-4-hydroxy-4-[5-(3-methyl-5-{[4-(trifluoromethyl)pyrimidin-2-yl]amino}phenyl)-1,3-thiazol-2-yl]cyclohexanecarbonitrile], under setting [1], the IC50 was less than 100 nM.
As for `Cc1cc(Nc2nccc(C(F)(F)F)n2)cc(-c2cnc(C3(O)CCC(C#N)CC3)s2)c1` (stereo not drawn) [37(2), trans-4-hydroxy-4-[5-(3-methyl-5-{[4-(trifluoromethyl)pyrimidin-2-yl]amino}phenyl)-1,3-thiazol-2-yl]cyclohexanecarbonitrile], the IC50 under setting [1] was less than 100 nM.
Take `Cc1cc(Nc2nccc(C(F)(F)F)n2)cc(-c2cnc([C@]3(O)CC[C@H](C(N)=O)CC3)s2)c1` [38(1), trans-4-hydroxy-4-[5-(3-methyl-5-{[4-(trifluoromethyl)pyrimidin-2-yl]amino}phenyl)-1,3-thiazol-2-yl]cyclohexanecarboxamide]: under setting [1], the IC50 is less than 100 nM.
`Cc1cc(Nc2nccc(C(F)(F)F)n2)cc(-c2cnc(C3(O)CCC(C(N)=O)CC3)s2)c1` (stereo not drawn) [38(2), cis-4-hydroxy-4-[5-(3-methyl-5-{[4-(trifluoromethyl)pyrimidin-2-yl]amino}phenyl)-1,3-thiazol-2-yl]cyclohexanecarboxamide]: the IC50 under setting [1] was less than 100 nM.
On to `Cc1cc(Nc2nccc(C(F)(F)F)n2)cc(-c2cnc(C(C)(O)CO)s2)c1` (stereo not drawn) [Ex 5-5], for which, under setting [2], the IC50 was less than 100 nM.
Take `Cc1cc(Nc2nccc(C(F)(F)F)n2)cc(-c2cnc(C(C)(O)CO)s2)c1` (stereo not drawn) [Ex 5-6]: the IC50 under setting [2] was less than 100 nM.
Turning to `Cc1cc(Nc2nccc(C(F)(F)F)n2)cc(-c2cnc(C(C)(O)CO)s2)c1` (stereo not drawn) [Ex 5-7], the IC50 under setting [2] is less than 100 nM.
Take `Cc1cc(Nc2ncc(F)c(C)n2)cc(-c2cnc(C(C)(O)CO)s2)c1` (stereo not drawn) [Ex 5-8]: the IC50 under setting [2] was less than 100 nM.
Regarding `Cc1cc(Nc2ncc(F)c(C)n2)cc(-c2cnc(C(C)(O)CO)s2)c1` (stereo not drawn) [Ex 5-9], the IC50 under setting [2] is less than 100 nM.
For the compound `Cc1cc(Nc2ncc(F)c(C)n2)cc(-c2cnc(C(C)(O)CO)s2)c1` (stereo not drawn) [Ex 5-10], the IC50 under setting [2] is less than 100 nM.
For the compound `Cc1cc(Nc2ncc(Cl)cn2)cc(-c2cnc(C(C)(O)CO)s2)c1` (stereo not drawn) [Ex 5-11], the IC50 under setting [2] lay in the range of 100 to 1000 nM.
In the case of `Cc1cc(Nc2ncc(Cl)cn2)cc(-c2cnc(C(C)(O)CO)s2)c1` (stereo not drawn) [Ex 5-12], under setting [2], the IC50 was less than 100 nM.
`Cc1cc(Nc2ncc(Cl)cn2)cc(-c2cnc(C(C)(O)CO)s2)c1` (stereo not drawn) [Ex 5-13]: the IC50 under setting [2] was 100 to 1000 nM.
Take `Cc1cc(Nc2ncc(F)c(C3CC3)n2)cc(-c2cnc(C(C)(O)CO)s2)c1` (stereo not drawn) [Ex 5-16]: the IC50 under setting [2] is less than 100 nM.
Consider `Cc1cc(Nc2ncc(F)c(C3CC3)n2)cc(-c2cnc(C(C)(O)CO)s2)c1` (stereo not drawn) [Ex 5-17], for which the IC50 under setting [2] is less than 100 nM.
In the case of `Cc1cc(Nc2ncc(F)c(C3CC3)n2)cc(-c2cnc(C(C)(O)CO)s2)c1` (stereo not drawn) [Ex 5-18], the IC50 under setting [2] is less than 100 nM.
For the compound `COc1ccc(Nc2nccc(C(F)(F)F)n2)cc1-c1cnc(C2(O)CCC2)s1` [Example 1-1], under setting [2], the IC50 was less than 100 nM.
The same measure, in the same setting: under `OC1(c2ncc(-c3cc(Nc4nccc(C(F)(F)F)n4)ccc3Cl)s2)CCC1` [Example 1-2] stands 100 to 1000 nM.
For `OC1(c2ncc(-c3cc(Nc4nccc(C(F)(F)F)n4)ccc3OC(F)(F)F)s2)CCC1` [Example 1-3], under setting [2], the IC50 lay in the range of 100 to 1000 nM.
For the compound `OC1(c2ncc(-c3cc(Nc4nccc(C(F)(F)F)n4)ccc3OCc3ccccc3)s2)CCC1` [Example 1-4], under setting [2], the IC50 was 100 to 1000 nM.
Take `Oc1ccc(Nc2nccc(C(F)(F)F)n2)cc1-c1cnc(C2(O)CCC2)s1` [Example 1-5]: the IC50 under setting [2] was less than 100 nM.
On to `Cc1ccc(Nc2nccc(C(F)(F)F)n2)cc1-c1cnc(C2(O)CCC2)s1` [Example 1-6], for which, under setting [2], the IC50 is less than 100 nM.
Same read-out and setting: under `CC(C)(O)c1ncc(-c2cccc(Nc3nccc(C(F)(F)F)n3)c2)s1` [Example 4A-1] stands less than 100 nM; under `CC(O)(c1ncc(-c2cccc(Nc3nccc(C(F)(F)F)n3)c2)s1)C(F)(F)F` (stereo not drawn) [Example 4A-2], less than 100 nM; under `CC(C)(C)C(C)(O)c1ncc(-c2cccc(Nc3nccc(C(F)(F)F)n3)c2)s1` (stereo not drawn) [Example 4A-6], 100 to 1000 nM.
As for `OC(c1ccccc1)(c1ncc(-c2cccc(Nc3nccc(C(F)(F)F)n3)c2)s1)C(F)F` (stereo not drawn) [Example 4A-7], the IC50 under setting [2] fell in the range of 100 to 1000 nM.
For `CN(C)CC(C)(C)C(O)c1ncc(-c2cccc(Nc3nccc(C(F)(F)F)n3)c2)s1` (stereo not drawn) [Example 4A-8], under setting [2], the IC50 lay within 100 to 1000 nM.
In the case of `CCC(O)(c1ncc(-c2cccc(Nc3nccc(C(F)(F)F)n3)c2)s1)C(F)(F)F` (stereo not drawn) [Example 4A-9], under setting [2], the IC50 is less than 100 nM.
For `CC(O)(c1ncc(-c2cccc(Nc3nccc(C(F)(F)F)n3)c2)s1)C(F)F` (stereo not drawn) [Example 4A-10], the IC50 under setting [2] was less than 100 nM.
With `OC(c1ncc(-c2cccc(Nc3nccc(C(F)(F)F)n3)c2)s1)(C1CCCCC1)C(F)(F)F` (stereo not drawn) [Example 4A-11], under setting [2], the IC50 lay in the range of 1000 to 10000 nM.
Take `CC(O)(c1ccn(S(=O)(=O)c2ccccc2)c1)c1ncc(-c2cccc(Nc3nccc(C(F)(F)F)n3)c2)s1` (stereo not drawn) [Example 4A-12]: the IC50 under setting [2] lay within 100 to 1000 nM.
Still for that read-out and setting: under `OC(c1ccc(Br)cn1)(c1ncc(-c2cccc(Nc3nccc(C(F)(F)F)n3)c2)s1)C(F)F` (stereo not drawn) [Example 4A-13] stands 100 to 1000 nM; under `CN(C)CC(C)(O)c1ncc(-c2cccc(Nc3nccc(C(F)(F)F)n3)c2)s1` (stereo not drawn) [Example 4A-14], 100 to 1000 nM.
Same read-out and setting: the value for `OC(c1ncc(-c2cccc(Nc3nccc(C(F)(F)F)n3)c2)s1)C1CCCC1` (stereo not drawn) [Example 4A-15] was 100 to 1000 nM; that for `OC(c1ccoc1)c1ncc(-c2cccc(Nc3nccc(C(F)(F)F)n3)c2)s1` (stereo not drawn) [Example 4A-17] was less than 100 nM.
The same measure, in the same setting: the value for `OC(c1cccnc1)c1ncc(-c2cccc(Nc3nccc(C(F)(F)F)n3)c2)s1` (stereo not drawn) [Example 4A-18] was 100 to 1000 nM.
As to `CC(C)n1cc(C(O)c2ncc(-c3cccc(Nc4nccc(C(F)(F)F)n4)c3)s2)cn1` (stereo not drawn) [Example 4A-20], under setting [2], the IC50 was 100 to 1000 nM.
Take `CC(O)(c1cccnc1)c1ncc(-c2cccc(Nc3nccc(C(F)(F)F)n3)c2)s1` (stereo not drawn) [Example 4A-21]: under setting [2], the IC50 is less than 100 nM.
For the compound `CC(O)(c1cnccn1)c1ncc(-c2cccc(Nc3nccc(C(F)(F)F)n3)c2)s1` (stereo not drawn) [Example 4A-22], the IC50 under setting [2] is less than 100 nM.
Take `CC(O)(c1ncc(-c2cccc(Nc3nccc(C(F)(F)F)n3)c2)s1)C1CCC1` (stereo not drawn) [Example 4A-23]: the IC50 under setting [2] is less than 100 nM.
For the compound `CC(C)C(O)(c1ncc(-c2cccc(Nc3nccc(C(F)(F)F)n3)c2)s1)C(C)C` [Example 4A-24], the IC50 under setting [2] fell in the range of 100 to 1000 nM.
Same read-out and setting: the value for `CC(=O)OCCC(C)(O)c1ncc(-c2cccc(Nc3nccc(C(F)(F)F)n3)c2)s1` (stereo not drawn) [Example 4A-25] was 100 to 1000 nM; that for `CCOC(=O)C1(C(C)(O)c2ncc(-c3cccc(Nc4nccc(C(F)(F)F)n4)c3)s2)CC1` (stereo not drawn) [Example 4A-26] was 100 to 1000 nM.
On to `OC(c1cccnc1)(c1nnco1)c1ncc(-c2cccc(Nc3nccc(C(F)(F)F)n3)c2)s1` (stereo not drawn) [Example 4A-27], for which the IC50 under setting [2] was in the range of 100 to 1000 nM.
For the compound `CCC(=O)C(O)(CC)c1ncc(-c2cccc(Nc3nccc(C(F)(F)F)n3)c2)s1` (stereo not drawn) [Example 4A-28], the IC50 under setting [2] lay in the range of 100 to 1000 nM.
On to `CC(O)(c1ccc(S(C)(=O)=O)s1)c1ncc(-c2cccc(Nc3nccc(C(F)(F)F)n3)c2)s1` (stereo not drawn) [Example 4A-29], for which, under setting [2], the IC50 is 100 to 1000 nM.
In the case of `OC(c1ccccn1)(c1nccs1)c1ncc(-c2cccc(Nc3nccc(C(F)(F)F)n3)c2)s1` (stereo not drawn) [Example 4A-30], the IC50 under setting [2] lay in the range of 100 to 1000 nM.
On to `CC(O)(c1ncc(-c2cccc(Nc3nccc(C(F)(F)F)n3)c2)s1)C(F)(F)C(F)(F)C(F)(F)F` (stereo not drawn) [Example 4A-31], for which the IC50 under setting [2] is 1000 to 10000 nM.
Regarding `COCC(C)(O)c1ncc(-c2cc(C)cc(Nc3nccc(C(F)(F)F)n3)c2)s1` (stereo not drawn) [Example 4A-32], the IC50 under setting [2] is less than 100 nM.
Consider `Cc1cc(Nc2nccc(C(F)(F)F)n2)cc(-c2cnc(C(C)(O)CF)s2)c1` (stereo not drawn) [Example 4A-33], for which, under setting [2], the IC50 was less than 100 nM.
As to `Cc1cc(Nc2nccc(C(F)(F)F)n2)cc(-c2cnc(C(O)(CF)CF)s2)c1` [Example 4A-34], the IC50 under setting [2] was less than 100 nM.
Consider `Cc1cc(Nc2nccc(C(F)(F)F)n2)cc(-c2cnc(C(C)(O)c3ncnn3C)s2)c1` (stereo not drawn) [Example 4A-35], for which, under setting [2], the IC50 was less than 100 nM.
Consider `Cc1cc(Nc2nccc(C(F)(F)F)n2)cc(-c2cnc(C(C)(O)c3noc(C)n3)s2)c1` (stereo not drawn) [Example 4A-36], for which, under setting [2], the IC50 is less than 100 nM.
On to `Cc1cc(Nc2nccc(C(F)(F)F)n2)cc(-c2cnc(C(O)(C3CC3)C3CC3)s2)c1` [Example 4A-37], for which, under setting [2], the IC50 is less than 100 nM.
With `Cc1cc(Nc2nccc(C(F)(F)F)n2)cc(-c2cnc(C(O)(CO)CO)s2)c1` [Example 4A-38], the IC50 under setting [2] is less than 100 nM.
On the same count and under the same terms, the value for `Cc1cc(Nc2nccc(C)n2)cc(-c2cnc(C(O)(CO)CO)s2)c1` [Example 4A-39] was less than 100 nM; that for `Cc1cc(Nc2nccc(C(F)(F)F)n2)cc(-c2cnc(C(O)CCC#N)s2)c1` (stereo not drawn) [Example 4A-41] was less than 100 nM.
`C=CCCC(O)c1ncc(-c2cc(C)cc(Nc3nccc(C(F)(F)F)n3)c2)s1` (stereo not drawn) [Example 4A-42]: the IC50 under setting [2] was less than 100 nM.
Take `C=CCCC(C)(O)c1ncc(-c2cc(C)cc(Nc3nccc(C(F)(F)F)n3)c2)s1` (stereo not drawn) [Example 4A-43]: under setting [2], the IC50 was less than 100 nM.
As to `Cc1cc(Nc2nccc(C(F)(F)F)n2)cc(-c2cnc(C(C)(O)CC(C)N)s2)c1` (stereo not drawn) [Example 4A-45], the IC50 under setting [2] was less than 100 nM.
